“Also recorded” adds a separate entry of the source.
Legend:
NMB-R = target: T1, NMB-R (Rattus norvegicus, UniProt P24053); assay: Competition with 125I-NMB for NMB-R in C6 cells (Example LX); format: binding, rodent; conditions: for receptor subtype preference (GRP-R / NMB-R): in words, from IC50 with 125I-NMB (C6) and 125I-BBN (PC3), cut off 10× the IC50 of [Tyr4]-BBN
T1 construct: C6, an NMB-R expressing rodent glioblastoma cell line; host or cells: C6 glioma cells, intact and plated
T1 sequence (P24053 1-390): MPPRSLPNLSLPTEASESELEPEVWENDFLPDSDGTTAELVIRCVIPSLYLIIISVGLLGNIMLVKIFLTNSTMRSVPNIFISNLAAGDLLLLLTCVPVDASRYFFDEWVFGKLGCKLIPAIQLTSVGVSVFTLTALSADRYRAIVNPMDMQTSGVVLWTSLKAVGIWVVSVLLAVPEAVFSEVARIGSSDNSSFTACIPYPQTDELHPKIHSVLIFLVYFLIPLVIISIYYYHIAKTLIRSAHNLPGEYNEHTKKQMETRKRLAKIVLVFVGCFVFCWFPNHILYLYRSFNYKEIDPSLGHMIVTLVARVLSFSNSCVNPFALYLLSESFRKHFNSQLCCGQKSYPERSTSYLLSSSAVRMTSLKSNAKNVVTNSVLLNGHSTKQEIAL
Protocol: Two cell lines, C6, an NMB-R expressing rodent glioblastoma cell line and PC3, a GRP-R expressing human prostate cancer cell line, were used in this assay. The affinity of various unlabeled compounds for each receptor subtype (NMB-R and GRP-R) was determined indirectly by measuring its ability to compete with the binding of ^125I-NMB or ^125I-BBN to its corresponding receptors in C6 and PC3 cells.
Cells for the assays were plated at a concentration of 9.6×10^4/well in 48 well poly-lysine coated plates (Beckton Dickinson Biocoat).
• Custom made ^125I-[Tyr^0]NMB, >2.0 Ci/μmole (Amersham Life Science) [^125I-NMB] and commercially available ^125I-[Tyr^4]BBN, >2.0 Ci/μmole (Perkin Elmer Life Science) [^125I-BBN] were used as radioligands.
• Using a 48-well plate assay system (for C6 study) competition experiments were performed using ^125I-NMB. […] Selection of compounds for the assay was based on linker subtype.
The binding parameters obtained from the studies were analyzed using a one-site competition non-linear regression analysis with GraphPad Prism. The relative affinity of various compounds for NMB-R in C6 cells were compared with those obtained using commercially available [Tyr^4]-BBN and [Tyr^0]-NMB. To distinguish the GRP-R preferring compounds from NMB-R plus GRP-R preferring compounds, IC50 values obtained for each compound was compared with those obtained from [Tyr^0]-BBN with ^125I-NMB on C6 cells.

PC3 cells = assay: Internalization & Efflux Assay in PC3 cells; format: cell-based, human; conditions: for Internalisation (40 minutes): 40 min at 37° C., Lu-177 complexes (125I-BBN as comparator); for Efflux (2 h): percent efflux 2 h after loading 40 min at 37° C., Lu-177 complexes
Protocol: • These studies were conducted in a 96-well plate. […] Incubations were stopped by the addition of 200 μl of ice-cold binding buffer. Plates were washed twice with binding buffer. To remove surface-bound radioligand, the cells were incubated with 0.2M acetic acid (in saline), pH 2.8 for 2 min. Plates were centrifuged and the acid wash media were collected to determine the amount of radioactivity which was not internalized. The cells were collected to determine the amount of internalized ^125I-BBN, and all samples were analyzed in the gamma counter. Data for the internalization assay was normalized by comparing counts obtained at the various time points with the counts obtained at the final time point (T40 min). • For the efflux studies, after loading the PC3 cells with ^125I-BBN or radiolabeled compounds of the invention for 40 min at 37° C., the unbound material was filtered, and the % of internalization was determined as above. The cells were then resuspended in binding buffer at 37° C. for up to 3 h.

[1] = tested on: PC3 tumor-bearing nude mice; format: in vivo, mouse; conditions: in words; for uptake in the tumor compared with control: 1 and 24 h
Protocol: • Low dose pharmacokinetic studies (e.g., biodistribution studies) were performed using the below-identified compounds of the invention in xenografted, PC3 tumor-bearing nude mice ([Ncr]-Foxn1). In all studies, mice were administered 100 μL of ^177Lu-labeled test compound at 200 μCi/kg, i.v., with a residence time of 1 and 24 h per group (n=3-4). Tissues were analyzed in an LKB 1282 CompuGamma counter with appropriate standards.

[2] = tested on: PC3 tumor-bearing nude mouse model; assay: Radiotherapy Short Term Efficacy Study; format: in vivo
Protocol: • Radiotherapy studies were performed using the PC3 tumor-bearing nude mouse model. […] (n=12 for each treatment group for up to 30 days, and n=36 for the pooled untreated control group for up to 31 days). […] The subjects were housed in a barrier environment for the duration of the study. Body weight and tumor size (by caliper measurement) were collected on each subject 3 times per week for the duration of the study. Criteria for early termination included: death; loss of total body weight (TBW) equal to or greater than 20%; tumor size equal to or greater than 2 cm^3.

[3] = tested on: PC3 tumor-bearing nude mouse model; assay: Radiotherapy Long Term Efficacy Study; format: in vivo; conditions: 177Lu labeled, 30 mCi/kg, up to 120 days; vs same controls; FIG. 15B
GRP-R = target: T2, GRP-R (Homo sapiens, UniProt P30550); assay: Competition assay of modified BBN analogs with 125I-BBN for GRP-R in PC3 cells (Example LXI); format: binding; conditions: in words
T2 construct: host or cells: PC3 human prostate cancer cells, intact and plated
T2 sequence (P30550 whole entry): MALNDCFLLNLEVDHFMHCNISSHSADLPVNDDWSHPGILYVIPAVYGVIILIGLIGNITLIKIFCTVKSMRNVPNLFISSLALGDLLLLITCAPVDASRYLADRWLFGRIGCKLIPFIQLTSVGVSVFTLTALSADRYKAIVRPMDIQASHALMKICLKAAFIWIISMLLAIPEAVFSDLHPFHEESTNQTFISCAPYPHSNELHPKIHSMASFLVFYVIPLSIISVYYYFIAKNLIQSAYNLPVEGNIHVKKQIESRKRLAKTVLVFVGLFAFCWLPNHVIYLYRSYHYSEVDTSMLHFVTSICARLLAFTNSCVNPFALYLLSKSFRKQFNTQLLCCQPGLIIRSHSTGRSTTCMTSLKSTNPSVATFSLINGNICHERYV
Protocol: • PC3 cell lines were obtained from ATCC(CRL-1435) and cultured in RPMI 1640 (ATCC) supplemented with 2 mM L-glutamine, 1.5 g/L Sodium bicarbonate, 10 mM HEPES and 10% FBS. […] PC3 cells for the assays were plated at a concentration of 2.0×10^4 cells/well in a 96-well white/clear bottom plates (Falcon Optilux-I). Plates were used for the assays on day 2 of the post-plating.
• RPMI 1640 (ATCC) containing 25 mM HEPES, 0.2% BSA fraction V, 1.0 mM AEBSF (CAS #3087-99-7) and 0.1% Bacitracin (CAS #1405-87-4), pH 7.4.
• ^125I-BBN (Cat # NEX258) was obtained from PerkinElmer Life Sciences.
• All compounds tested were dissolved in binding buffer and appropriate dilutions were also done in binding buffer. PC3 cells for assay were seeded at a concentration of 2.0×10^4/well either in 96-well black/clear collagen I cellware plates (Beckton Dickinson Biocoat). Plates were used for binding studies on day 2 post-plating. The plates were checked for confluency (>90% confluent) prior to assay. […] The studies were conducted with an assay volume of 75 μl per well. Triplicate wells were used for each data point. After the addition of the appropriate solutions, plates were incubated for 1 hour at 4° C. Incubation was ended by the addition of 200 uL of ice-cold incubation buffer. Plates were washed 5 times and blotted dry. Radioactivity was detected using either a LKB CompuGamma counter or a microplate scintillation counter.

[4] = Table 10, class cut off 10x the IC50 of [Tyr4]-BBN with 125I-NMB on C6 cells, yes or dash
[5] = 177Lu labeled, 30 mCi/kg, up to 30 days, vs untreated and vs DO3A-monoamide-Aoc-QWAVGHLM-NH2 control, FIG. 15A

## CSCC[C@H](NC(=O)[C@H](CC(C)C)NC(=O)[C@H](Cc1c[nH]cn1)NC(=O)CNC(=O)[C@@H](NC(=O)[C@H](C)NC(=O)[C@H](Cc1c[nH]c2ccccc12)NC(=O)[C@H](CCC(N)=O)NC(=O)CC[C@@H](C)[C@H]1CC[C@H]2[C@@H]3CC[C@@H]4C[C@@H](NC(=O)CNC(=O)CN5CCN(CC(=O)O)CCN(CC(=O)O)CCN(CC(=O)O)CC5)CC[C@]4(C)[C@H]3C[C@H](O)[C@]12C)C(C)C)C(N)=O [Compound L63, N-[(3β,5β,12α)-3-[[[[[4,7,10-Tris(carboxymethyl)-1,4,7,10-tetraazacyclododec-1-yl]acetyl]amino]acetyl]amino]-12-hydroxy-24-oxocholan-24-yl]-L-glutaminyl-L-tryptophyl-L-alanyl-L-valyl-glycyl-L-histidyl-L-leucyl-L-methioninamide]
NMB-R; [4]
  GRP-R & NMB-R (binds both with similar affinity): yes
NMB-R
  receptor subtype preference (GRP-R / NMB-R): dual affinity for both GRP-R and NMB-R
PC3 cells
  Internalisation (40 minutes): 64%
  Efflux (2 h): 0%
[1]
  uptake in the mouse pancreas compared with control: much higher
  uptake in the tumor compared with control: high tumour uptake
[1]; vs DO3A-monoamide-Aoc-QWAVGHLM-NH2
  distribution of radioactivity in the blood, liver and kidneys compared with control: increased blood and liver values at early times
[2]; [5]
  survival: increased survival

## CSCC[C@H](NC(=O)[C@H](CC(C)C)NC(=O)[C@H](Cc1c[nH]cn1)NC(=O)CNC(=O)[C@@H](NC(=O)[C@H](C)NC(=O)[C@H](Cc1c[nH]c2ccccc12)NC(=O)[C@H](CCC(N)=O)NC(=O)CC[C@@H](C)[C@H]1CC[C@H]2[C@@H]3[C@H](O)C[C@@H]4C[C@@H](NC(=O)CNC(=O)CN5CCN(CC(=O)O)CCN(CC(=O)O)CCN(CC(=O)O)CC5)CC[C@]4(C)[C@H]3C[C@H](O)[C@]12C)C(C)C)C(N)=O [Compound L64, N-[(3β,5β,7α,12α)-3-[[[[[4,7,10-Tris(carboxymethyl)-1,4,7,10-tetraazacyclododec-1-yl]acetyl]amino]acetyl]amino]-7,12-dihydroxy-24-oxocholan-24-yl]-L-glutaminyl-L-tryptophyl-L-alanyl-L-valyl-glycyl-L-histidyl-L-leucyl-L-methioninamide]
NMB-R; [4]
  GRP-R & NMB-R (binds both with similar affinity): yes
NMB-R
  receptor subtype preference (GRP-R / NMB-R): dual affinity for both GRP-R and NMB-R
PC3 cells
  Internalisation (40 minutes): 69%
  Efflux (2 h): 20%
[1]
  uptake in the mouse pancreas compared with control: much higher
  uptake in the tumor compared with control: much higher
[2]; [5]
  survival: increased survival
[3]
  survival: significantly increased survival

## DO3A-Gly-Abz-4-Gln-Trp-Ala-Val-Gly-His-Phe-Leu-NH2 [Compound L300]
GRP-R
  competition / activity at GRP-R: high activity at the GRP-R

## DO3A-monoamide-8-amino-octanoic acid-BBN (7-14) [reference compound]
PC3 cells
  Internalisation (40 minutes): 89%
  Efflux (2 h): 28%

## DO3A-monoamide-N-4-aminoethyl-N-1-piperazineacetic acid-BBN(7-14) [Compound L89]
NMB-R; [4]
  GRP-R (preferentially binds GRP-R): yes
NMB-R
  receptor subtype preference (GRP-R / NMB-R): GRP-R selectivity

## N,N-dimethylglycine-Ser-Cys(Acm)-Gly-Asp-8-amino-3,6-dioxaoctanoic acid-BBN(7-14) [Compound L3]
NMB-R; [4]
  GRP-R & NMB-R (binds both with similar affinity): yes

## N,N-dimethylglycine-Ser-Cys(Acm)-Gly-N-1-piperazineacetic acid-8-amino-3,6-dioxaoctanoic acid-BBN(7-14) [Compound L36]
NMB-R; [4]
  GRP-R & NMB-R (binds both with similar affinity): yes

## N,N-dimethylglycine-Ser-Cys(Acm)-Gly-N-4-aminoethyl-N-1-piperazineacetic acid-Ser-BBN(7-14) [Compound L28]
NMB-R; [4]
  GRP-R & NMB-R (binds both with similar affinity): yes

## N-[4-[[[[4,7,10-Tris(carboxymethyl)-1,4,7,10tetraazacyclododec-1-yl]acetyl]glycyl]amino]3-chlorobenzoyl]L-glutaminyl-L-tryptophyl-1-alanyl-L-valyl-glycyl-L-histidyl-L-leucyl-L-methioninamide [Compound L241]
NMB-R; [4]
  GRP-R & NMB-R (binds both with similar affinity): yes

## N-[4-[[[[4,7,10-Tris(carboxymethyl)-1,4,7,10tetraazacyclododec-1-yl]acetyl]glycyl]amino]-3-methoxybenzoyl]-L-glutaminyl-L-tryptophyl-1-alanyl-L-valyl-glycyl-L-histidyl-L-leucyl-L-methioninamide [Compound L240]
NMB-R
  receptor subtype preference (GRP-R / NMB-R): selective affinity to GRP-R

## N-[4-[[[[[4,7,10-Tris(carboxymethyl)-1,4,7,10-tetraazacyclododec-1-yl]acetyl]amino]acetyl]amino]benzoyl]-L-glutaminyl-L-tryptophyl-L-alanyl-L-valyl-glycyl-L-histidyl-L-leucyl-L-methioninamide [Compound L70]
NMB-R; [4]
  GRP-R & NMB-R (binds both with similar affinity): yes
NMB-R
  receptor subtype preference (GRP-R / NMB-R): dual affinity
PC3 cells
  Internalisation (40 minutes): 70%
  Efflux (2 h): 12%
[2]; mouse, in vivo
  survival: increased survival
[3]
  survival: significantly increased survival

## N-[(3β,5β,12α)-3-[[[4,7,10-Tris(carboxymethyl)-1,4,7,10-tetraazacyclododec-1-yl]acetyl]amino]-4-aminobenzoyl-glycyl-L-glutaminyl-L-tryptophyl-L-alanyl-L-valyl-glycyl-L-histidyl-L-leucyl-L-methioninamide [Compound L204]
NMB-R; Table 10
  Receptor preference in words (cell spanning the GRP-R and GRP-R & NMB-R columns): preference to NMB-R
NMB-R; [4]
  GRP-R & NMB-R (binds both with similar affinity): yes
NMB-R
  receptor subtype preference (GRP-R / NMB-R): selective affinity to NMB-R; also recorded: favor the NMB subtype

## N-[(3β,5β,12α)-3-[[[4,7,10-Tris(carboxymethyl)-1,4,7,10-tetraazacyclododec-1-yl]acetyl]amino]-glycyl-4-aminobenzoyl-L-glutaminyl-L-tryptophyl-L-alanyl-L-valyl-glycyl-L-histidyl-L-phenylalanyl-L-methioninamide [Compound L228]
GRP-R
  competition / activity at GRP-R: maintains GRP-R activity

## N-[(3β,5β,12α)-3-[[[4,7,10-Tris(carboxymethyl)-1,4,7,10-tetraazacyclododec-1-yl]acetyl]amino]-glycyl-4-aminobenzoyl-L-glutaminyl-L-tryptophyl-L-alanyl-glycyl-L-histidyl-L-phenylalanyl-L-leucinamide [Compound L224]
GRP-R
  competition / activity at GRP-R: complete loss of binding

## N-[(3β,5β,12α)-3-[[[4,7,10-Tris(carboxymethyl)-1,4,7,10-tetraazacyclododec-1-yl]acetyl]amino]-glycyl-4-aminobenzoyl-L-leucyl-L-tryptophyl-L-alanyl-L-valinyl-glycyl-L-serinyl-L-phenylalanyl-L-methioninamide [Compound L225]
GRP-R
  competition / activity at GRP-R: reduces competition at the GRP-R

## N-[(3β,5β,12α)-3-[[[[[4,7,10-Tris(carboxymethyl)-1,4,7,10-tetraazacyclododec-1-yl]acetyl]amino]acetyl]amino]-4-hydrazinobenzoyl-L-glutaminyl-L-tryptophyl-L-alanyl-L-valyl-glycyl-L-histidyl-L-leucyl-L-methioninamide [Compound L202]
NMB-R; [4]
  GRP-R & NMB-R (binds both with similar affinity): yes

## N-[(3β,5β,12α)-3-[[[[[4,7,10-Tris(carboxymethyl)-1,4,7,10-tetraazacyclododec-1-yl]acetyl]amino]acetyl]amino]-[4′-Amino-2′-methyl biphenyl-4-carboxyl]-L-glutaminyl-L-tryptophyl-L-alanyl-L-valyl-glycyl-L-histidyl-L-leucyl-L-methioninamide [Compound L206]
NMB-R; [4]
  GRP-R & NMB-R (binds both with similar affinity): yes

## N-[[4,7,10-Tris(carboxymethyl)-1,4,7,10-tetraazacyclododec-1-yl]acetyl]glycyl-4-piperidinecarbonyl-L-glutaminyl-L-tryptophyl-L-alanyl-L-valyl-glycyl-L-histidyl-L-leucyl-L-methioninamide [Compound L74]
NMB-R; [4]
  GRP-R & NMB-R (binds both with similar affinity): yes

Reference: patent US7922998B2, “Gastrin releasing peptide compounds” (Bracco Imaging S.p.A., priority 2003, dated 2011)
